Results on 4 compounds are retold here after publication PMC7827406, “Structure–Activity Relationship (SAR) Study of Spautin-1 to Entail the Discovery of Novel NEK4 Inhibitors” (International Journal of Molecular Sciences, 2021).

Holding throughout (assay): biochemical
Holding throughout (parameters): Eurofins KinaseProfiler full panel at Km ATP, residual kinase activity (%) relative to DMSO

Assay [1] deals with T1, Arg(m) (Mus musculus, UniProt Q4JIM5).
T1 construct: gene Abl2
The method, boiled down: (§1)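 Compounds screened at 10 µM in radiometric kinase activity assays at Km ATP, reported as remaining kinase activity (%). A KINOMEscan competition-binding screen at 10 µM measured DNA-tagged kinase retained on immobilized active-site ligand by qPCR.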

Assay [2] concerns the target T2, B-Raf(h) (Homo sapiens, UniProt P15056).
T2 construct: gene BRAF
The method, boiled down:
as §1

Assay [3] concerns the target Blk(m) (Mus musculus, UniProt P16277). Put shortly:
as §1

The target in assay [4] is CDK6/cyclinD3(h) (Homo sapiens, UniProt Q00534). The method, boiled down:
as §1

The target in assay [5] is T3, CaMKI(h) (Homo sapiens, UniProt Q14012).
T3 construct: gene CAMK1
The method, boiled down:
as §1

Assay [6] addresses Cdc7/cyclinB1(h) (Homo sapiens, UniProt O00311). Put shortly:
as §1

Assay [7] addresses T4, HRI(h) (Homo sapiens, UniProt Q9BQI3).
T4 construct: gene EIF2AK1
The method, boiled down:
as §1

The target of assay [8] is T5, PI3 Kinase (p110a/p65a)(m) (Mus musculus, UniProt P42337).
T5 construct: gene Pik3ca; with p65a
Put shortly: as §1

The target of assay [9] is Ret (V804L)(h) (Homo sapiens, UniProt P07949, V804L). The method, boiled down: as §1
In assay [10] the target is Src(T341M)(h) (Homo sapiens, UniProt P12931, T341M). Put shortly: as §1
The target of assay [11] is T6, TSSK4(h) (Homo sapiens, UniProt Q6SA08).
T6 sequence (Q6SA08 1-328): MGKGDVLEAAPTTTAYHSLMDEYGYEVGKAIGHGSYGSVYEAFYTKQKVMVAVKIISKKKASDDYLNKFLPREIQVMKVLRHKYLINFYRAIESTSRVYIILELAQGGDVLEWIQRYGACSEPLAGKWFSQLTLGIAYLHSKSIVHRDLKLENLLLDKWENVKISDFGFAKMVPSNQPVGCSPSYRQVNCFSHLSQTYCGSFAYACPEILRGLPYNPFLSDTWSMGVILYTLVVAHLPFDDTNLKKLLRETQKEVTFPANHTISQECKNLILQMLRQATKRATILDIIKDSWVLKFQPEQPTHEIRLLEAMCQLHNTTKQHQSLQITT
The method, boiled down: as §1

Assay [12] addresses T7, Tie2(R849W)(h) (Homo sapiens, UniProt Q02763, R849W).
T7 construct: gene TEK
The method, boiled down: as §1

The mark [13] stands for this setting: read-out: Residual activity (%) Spautin-1 5aa.
[14] abbreviates: read-out: Residual activity (%) 5as.
The mark [15] stands for this setting: read-out: Residual activity (%) 5at.
Where [16] appears, read: read-out: Residual activity (%) 5ay.

Molecules are shown by their SMILES. Like-named read-outs stand apart in the source and are kept apart here.

T3 sequence (Q14012 whole entry): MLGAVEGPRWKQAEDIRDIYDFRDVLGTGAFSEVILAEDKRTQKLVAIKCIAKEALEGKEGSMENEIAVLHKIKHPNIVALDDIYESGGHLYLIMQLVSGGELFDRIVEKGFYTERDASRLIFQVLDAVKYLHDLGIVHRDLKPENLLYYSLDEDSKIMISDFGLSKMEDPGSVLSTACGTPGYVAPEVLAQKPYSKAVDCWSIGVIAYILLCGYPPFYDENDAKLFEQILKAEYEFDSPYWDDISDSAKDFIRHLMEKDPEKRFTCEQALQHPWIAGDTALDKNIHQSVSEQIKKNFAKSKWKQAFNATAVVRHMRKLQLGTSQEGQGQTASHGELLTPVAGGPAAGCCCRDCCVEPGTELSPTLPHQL
Chain of Blk(m) (P16277 whole entry): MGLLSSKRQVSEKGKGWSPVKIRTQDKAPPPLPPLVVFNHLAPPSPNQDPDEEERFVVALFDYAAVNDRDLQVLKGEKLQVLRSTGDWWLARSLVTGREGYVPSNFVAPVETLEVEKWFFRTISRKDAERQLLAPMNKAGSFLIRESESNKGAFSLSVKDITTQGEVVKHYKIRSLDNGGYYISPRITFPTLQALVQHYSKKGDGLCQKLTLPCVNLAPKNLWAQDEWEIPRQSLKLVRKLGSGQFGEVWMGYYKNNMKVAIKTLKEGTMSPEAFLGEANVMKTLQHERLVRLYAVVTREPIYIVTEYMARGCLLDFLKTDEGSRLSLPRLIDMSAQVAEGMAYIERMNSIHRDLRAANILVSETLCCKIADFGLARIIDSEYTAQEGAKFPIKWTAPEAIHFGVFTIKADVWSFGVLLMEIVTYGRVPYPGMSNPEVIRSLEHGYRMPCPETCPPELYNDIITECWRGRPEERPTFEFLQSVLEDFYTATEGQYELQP
T7 sequence (Q02763 whole entry R849W): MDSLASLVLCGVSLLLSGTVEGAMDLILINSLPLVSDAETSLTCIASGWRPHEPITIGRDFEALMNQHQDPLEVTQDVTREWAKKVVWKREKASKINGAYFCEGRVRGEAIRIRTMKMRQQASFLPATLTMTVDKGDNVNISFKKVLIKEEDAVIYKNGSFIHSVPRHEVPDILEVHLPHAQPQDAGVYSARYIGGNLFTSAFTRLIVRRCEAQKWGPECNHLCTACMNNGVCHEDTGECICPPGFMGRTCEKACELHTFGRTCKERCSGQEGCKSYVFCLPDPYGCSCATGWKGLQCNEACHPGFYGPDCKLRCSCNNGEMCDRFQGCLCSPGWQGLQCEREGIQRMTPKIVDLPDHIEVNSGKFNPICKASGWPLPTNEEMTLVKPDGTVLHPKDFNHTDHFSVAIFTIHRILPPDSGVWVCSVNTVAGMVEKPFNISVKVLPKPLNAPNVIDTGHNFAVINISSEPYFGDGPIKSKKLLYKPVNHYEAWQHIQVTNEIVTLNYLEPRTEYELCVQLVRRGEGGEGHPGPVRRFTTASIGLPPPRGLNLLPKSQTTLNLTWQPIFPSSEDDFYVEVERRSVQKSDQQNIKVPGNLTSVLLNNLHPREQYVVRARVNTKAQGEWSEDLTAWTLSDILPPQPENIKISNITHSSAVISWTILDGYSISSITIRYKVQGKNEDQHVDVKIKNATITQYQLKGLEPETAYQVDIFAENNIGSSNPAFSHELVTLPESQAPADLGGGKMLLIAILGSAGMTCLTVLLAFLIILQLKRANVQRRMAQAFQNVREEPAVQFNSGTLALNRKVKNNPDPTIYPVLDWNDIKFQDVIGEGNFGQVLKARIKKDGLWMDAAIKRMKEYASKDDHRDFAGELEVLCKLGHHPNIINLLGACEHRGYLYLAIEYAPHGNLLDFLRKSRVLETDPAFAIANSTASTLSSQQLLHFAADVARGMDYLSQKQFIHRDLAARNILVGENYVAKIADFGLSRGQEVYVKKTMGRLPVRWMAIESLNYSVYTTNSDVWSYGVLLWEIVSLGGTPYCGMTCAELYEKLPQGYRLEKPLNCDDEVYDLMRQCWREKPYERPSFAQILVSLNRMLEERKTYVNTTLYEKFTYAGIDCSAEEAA
Chain of CDK6/cyclinD3(h) (Q00534 whole entry): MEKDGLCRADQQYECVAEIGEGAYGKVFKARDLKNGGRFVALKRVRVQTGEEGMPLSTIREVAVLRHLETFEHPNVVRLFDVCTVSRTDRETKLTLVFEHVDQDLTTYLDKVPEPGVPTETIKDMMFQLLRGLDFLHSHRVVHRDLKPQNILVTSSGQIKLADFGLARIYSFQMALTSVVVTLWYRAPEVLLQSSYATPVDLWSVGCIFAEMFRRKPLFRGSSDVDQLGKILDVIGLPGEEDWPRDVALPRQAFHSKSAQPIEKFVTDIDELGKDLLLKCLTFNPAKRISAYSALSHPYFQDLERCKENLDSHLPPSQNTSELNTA
Chain of CDK6/cyclinD3(h) (P30281 whole entry partner): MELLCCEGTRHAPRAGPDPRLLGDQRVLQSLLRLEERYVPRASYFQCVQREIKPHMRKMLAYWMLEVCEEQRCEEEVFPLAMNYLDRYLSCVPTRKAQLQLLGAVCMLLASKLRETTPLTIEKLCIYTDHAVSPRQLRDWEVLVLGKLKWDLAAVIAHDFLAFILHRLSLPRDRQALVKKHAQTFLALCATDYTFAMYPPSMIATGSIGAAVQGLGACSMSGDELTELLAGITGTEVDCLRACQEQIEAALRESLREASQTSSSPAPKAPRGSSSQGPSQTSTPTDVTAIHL
T1 sequence (Q4JIM5 whole entry): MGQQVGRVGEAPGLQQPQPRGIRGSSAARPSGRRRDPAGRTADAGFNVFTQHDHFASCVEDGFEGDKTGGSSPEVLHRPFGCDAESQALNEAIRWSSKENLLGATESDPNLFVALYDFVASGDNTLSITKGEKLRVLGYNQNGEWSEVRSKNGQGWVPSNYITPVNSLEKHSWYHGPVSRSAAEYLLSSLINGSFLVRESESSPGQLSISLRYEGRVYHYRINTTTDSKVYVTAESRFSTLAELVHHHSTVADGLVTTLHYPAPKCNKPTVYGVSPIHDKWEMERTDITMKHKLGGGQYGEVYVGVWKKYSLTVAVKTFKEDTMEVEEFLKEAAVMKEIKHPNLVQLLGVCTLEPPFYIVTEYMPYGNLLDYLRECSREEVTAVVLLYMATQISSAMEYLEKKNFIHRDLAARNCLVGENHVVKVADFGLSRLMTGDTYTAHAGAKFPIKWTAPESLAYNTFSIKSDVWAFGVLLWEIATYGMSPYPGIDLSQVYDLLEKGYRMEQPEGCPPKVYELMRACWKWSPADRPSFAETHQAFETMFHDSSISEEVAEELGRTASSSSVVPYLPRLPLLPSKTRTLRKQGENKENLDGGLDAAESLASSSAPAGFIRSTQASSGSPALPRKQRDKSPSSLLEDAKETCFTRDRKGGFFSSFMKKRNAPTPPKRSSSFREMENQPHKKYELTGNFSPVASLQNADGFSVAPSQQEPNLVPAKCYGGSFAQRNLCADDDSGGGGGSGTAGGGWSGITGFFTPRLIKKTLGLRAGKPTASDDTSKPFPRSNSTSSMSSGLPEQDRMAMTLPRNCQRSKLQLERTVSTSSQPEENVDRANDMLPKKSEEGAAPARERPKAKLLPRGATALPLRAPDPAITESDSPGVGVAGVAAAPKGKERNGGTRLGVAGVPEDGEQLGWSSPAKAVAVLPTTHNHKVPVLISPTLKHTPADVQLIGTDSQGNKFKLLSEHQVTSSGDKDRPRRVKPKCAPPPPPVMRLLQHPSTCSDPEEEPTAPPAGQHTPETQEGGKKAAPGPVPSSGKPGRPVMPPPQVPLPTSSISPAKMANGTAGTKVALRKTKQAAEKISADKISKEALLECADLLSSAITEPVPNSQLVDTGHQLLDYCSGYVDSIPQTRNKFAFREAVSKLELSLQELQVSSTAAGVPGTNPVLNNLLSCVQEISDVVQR
Chain of Ret (V804L)(h) (P07949 whole entry V804L): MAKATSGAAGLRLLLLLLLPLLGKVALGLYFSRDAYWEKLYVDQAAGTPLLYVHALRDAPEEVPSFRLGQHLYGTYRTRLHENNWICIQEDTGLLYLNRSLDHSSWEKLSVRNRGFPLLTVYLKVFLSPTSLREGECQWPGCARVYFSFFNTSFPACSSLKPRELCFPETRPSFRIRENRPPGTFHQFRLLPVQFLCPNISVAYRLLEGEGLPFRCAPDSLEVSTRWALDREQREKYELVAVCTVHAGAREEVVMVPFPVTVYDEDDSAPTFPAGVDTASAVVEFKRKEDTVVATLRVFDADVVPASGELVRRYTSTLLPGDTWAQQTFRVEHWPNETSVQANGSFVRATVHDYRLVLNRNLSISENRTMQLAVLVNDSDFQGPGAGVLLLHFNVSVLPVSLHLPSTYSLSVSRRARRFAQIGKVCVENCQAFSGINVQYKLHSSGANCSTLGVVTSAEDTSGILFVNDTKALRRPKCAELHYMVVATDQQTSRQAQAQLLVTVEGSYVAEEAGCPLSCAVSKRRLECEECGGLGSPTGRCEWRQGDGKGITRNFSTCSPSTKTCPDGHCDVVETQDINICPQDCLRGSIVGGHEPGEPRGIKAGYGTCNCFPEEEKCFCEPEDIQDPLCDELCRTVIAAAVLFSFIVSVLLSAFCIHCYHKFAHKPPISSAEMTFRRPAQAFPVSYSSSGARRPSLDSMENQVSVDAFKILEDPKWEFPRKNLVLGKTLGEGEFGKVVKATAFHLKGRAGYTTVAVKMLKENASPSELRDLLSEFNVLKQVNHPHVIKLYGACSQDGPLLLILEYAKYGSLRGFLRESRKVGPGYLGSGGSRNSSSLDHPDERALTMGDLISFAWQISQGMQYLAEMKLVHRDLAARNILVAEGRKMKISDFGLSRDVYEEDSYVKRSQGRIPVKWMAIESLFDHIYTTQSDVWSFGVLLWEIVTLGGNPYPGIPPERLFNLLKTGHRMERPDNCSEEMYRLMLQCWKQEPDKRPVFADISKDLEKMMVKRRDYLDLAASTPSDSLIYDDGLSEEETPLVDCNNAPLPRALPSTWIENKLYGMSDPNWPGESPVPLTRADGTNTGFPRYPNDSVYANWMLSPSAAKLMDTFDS

`Fc1ccc(CNc2ncnc3ccc(F)cc23)cc1` [5aa, 6-Fluoro-N-(4-fluorobenzyl)-4-Quinazolinamine]: the remaining activity at 10 µM turned out to be 91% in assay [1] (setting [13]); 90% in assay [2] (setting [13]); 91% in assay [3] (setting [13]); 102% in [4] (setting [13]); 90% in assay [5] (setting [13]); 92% in assay [6] (setting [13]). The remaining activity at 10 µM in assay [7] (setting [13]) came to 96%; in assay [8] (setting [13]) it was 98%; in assay [9] (setting [13]), 82%; in assay [10] (setting [13]), 94%; in [11] (setting [13]), 89%; in assay [12] (setting [13]), 91%.
Take `Fc1ccc(CCNc2ncnc3ccc(F)cc23)cc1` [5as, 6-Fluoro-N-[2-(4-Fluorophenyl)Ethyl]-4-Quinazolinamine]: the remaining activity at 10 µM amounted to 105% in assay [1] (setting [14]); 83% in assay [2] (setting [14]); 100% in assay [3] (setting [14]); 96% in [4] (setting [14]); 60% in assay [5] (setting [14]); 79% in [6] (setting [14]). In addition, the remaining activity at 10 µM in assay [7] (setting [14]) came to 99%; in assay [8] (setting [14]), 86%; in [9] (setting [14]), 78%; in assay [10] (setting [14]), 103%; in assay [11] (setting [14]), 112%; in assay [12] (setting [14]), 98%.
Consider `Fc1ccc2ncnc(NCCc3ccc(Cl)cc3)c2c1` [5at, N-[2-(4-Chlorophenyl)Ethyl]-6-Fluoro-4-Quinazolinamine], for which the remaining activity at 10 µM was found to be 98% in assay [1] (setting [15]); 92% in assay [2] (setting [15]); 98% in assay [3] (setting [15]); 98% in [4] (setting [15]); 104% in [5] (setting [15]); 76% in assay [6] (setting [15]). Moreover, the remaining activity at 10 µM came to 101% in assay [7] (setting [15]); 87% in [8] (setting [15]); 71% in assay [9] (setting [15]); 83% in assay [10] (setting [15]); 125% in [11] (setting [15]); 90% in assay [12] (setting [15]).
Consider `COc1ccc2ncnc(Nc3cccc(F)c3)c2c1` [5ay, N-(3-Fluorophenyl)-6-Methoxy-4-Quinazolinamine], for which the remaining activity at 10 µM in assay [1] (setting [16]) is 83%; in assay [2] (setting [16]), 82%; in assay [3] (setting [16]) it was 102%; in [4] (setting [16]), 87%; in assay [5] (setting [16]), 93%; in assay [6] (setting [16]) it was 73%. For the same compound, the remaining activity at 10 µM in assay [7] (setting [16]) amounted to 99%; in assay [8] (setting [16]), 101%; in assay [9] (setting [16]), 91%; in [10] (setting [16]), 96%; in assay [11] (setting [16]) it was 134%; in assay [12] (setting [16]) it was 110%.
